# Laboratory results from US7888286B2, “Method of selectively controlling morning glory (Ipomoea) spp” (Bayer CropScience AG, priority 2006, dated 2011).
# Counter-ions that a name gives are not always drawn.
# What was measured:
# morning glory spp. [1] = assay: Herbicidal property on weeds; assay type: in vivo; conditions: for Herbicidal activity: all of the tested morning glory spp.
# Abutilon theophrasti = assay: Herbicidal property on weeds; conditions: in vivo
# Ipomoea hederacea Jacq. = assay: Morning glory spp. control test: glufosinate (salt) sprayed only on lower half portion of hill; assay type: in vivo; set-up: key to Effect, upper half portion of hill / Effect, lower half portion of hill: +++ complete death; ++ almost death; + partial death; − no effect
# Protocol: (§1) In the case of spraying of glufosinate (salt) only on the lower half portion of a hill of morning glory spp:
# (§2) Ipomoea hederacea Jacq. and Ipomoea triloba L. generated in the form of grapevine and at the edge of a soybean field in Anjo City, Aichi Prefecture were tested. A 200-fold diluted solution of glufosinate was sprayed only on the lower half portion of the hill while covering the upper half portion thereof with plastic film so that the solution was not sprayed thereon. Thereafter, effects on the lower and upper half portions were observed.
# Ipomoea triloba L. = assay: as above; assay type: in vivo; set-up: key: +++ complete death; ++ almost death; + partial death; − no effect; conditions: treated Aug. 13, 2005, examined August 23
# Protocol: as §1, §2
# Ipomoea lacunosa L. = assay: Morning glory spp. control test: glufosinate (salt) sprayed only on upper portion of stem (pot test); assay type: in vivo; set-up: key to Effect, leaf 6 / Effect, leaf 5 / Effect, leaf 4 / Effect, leaf 3 / Effect, leaf 2 / Effect, leaf 1 / Effect, root / Effect, peak portion of stem / Effect, leaf 8 / Effect, leaf 7: +++ complete death; ++ almost death; + partial death; − no effect
# Protocol: In the case of spraying of glufosinate (salt) only on the upper portion of morning glory spp:
# Ipomoea lacunosa L. (eight leaves) in a pot was tested. A 200-fold diluted solution of glufosinate (salt) was sprayed only on the upper portion of a stem while preventing spraying on the lower portion thereof. Thereafter, effects on respective portions were observed.
# Sida spinosa L. = assay: Herbicidal property on weeds; conditions: in vivo
# HIROHAFUURINHOZUKI = assay: Herbicidal property on weeds; conditions: in vivo
# Aeschynomene indica = assay: Herbicidal property on weeds; conditions: in vivo
# Solanum carolinense = assay: Herbicidal property on weeds; conditions: in vivo
# morning glory spp. [2] = assay: Control machine-spraying of glufosinate (salt) on soybean inter-ridge: herbicidal effect; assay type: in vivo; conditions: 500 mL/10 a in 100 L/10 a water
# Protocol: (§3) Soybean cultivation in the Tokai region is often carried out with large scale by farming associates and large scale farmhouses. Under such circumstances, morning glory spp. cause a serious problem in soybean fields during its growth period, and its controlling method is required to be established quickly. In soybean fields in Anjo City, Aichi Prefecture showing a problem of morning glory spp., a test for proving applicability of controlling morning glory spp. was performed using a control machine-spraying intending laborsaving.
# (§4) A commercially available spraying apparatus was attached to the front side of a riding-type control machine, and glufosinate was sprayed from near ground edge. The nozzle position can be varied depending on ridge width and soybean height. In a theory of spraying a herbicide, the herbicide is introduced from a herbicide tank through a hose so that the herbicide can be sprayed on a lower part between ridges (suspending mode). Some farmhouses devise by themselves this spraying apparatus.
# In spraying (FIGS. 1, 2 and 3), morning glory spp. developed almost all over the field, and some of them coiled around soybean, the peak portion thereof extending up to over the head portion of soybean. FIG. 1 is a photograph showing full view of glufosinate spraying. FIG. 2 is a photograph showing glufosinate (salt) sprayed part. FIG. 3 is a photograph showing a herbicidal process of glufosinate (salt). […] FIG. 4 is a photograph showing the killing effect of glufosinate (salt) ranging to the peak portion (shown with an arrow) of the stem of Ipomoea triloba L. (14 days after spraying, August 23). […] This effect appeared even in the peak portion of the stem extending up to over the head portion of the soybean, and in this portion, leaves and stems of morning glory spp. turned to yellow. […] From these phenomena, it was believed that the morning glory spp. show very higher sensitivity to glufosinate (salt) than soybean.
# soybean = assay: Control machine-spraying of glufosinate (salt) on soybean inter-ridge: phytotoxicity and bean weight of soybean; assay type: in vivo; conditions: for Bean weight: soybean field with rampant morning glory spp., 500 mL/10 a sprayed August 9, crop November 11, non-sprayed district 96 ± 21
# Protocol: as §3, §4
# [3] = test system: morning glory spp. such as Ipomoea triloba L. and Ipomoea hederacea Jacq.; assay: Morning glory spp. control test with bialaphos solution (soybean field); assay type: in vivo; conditions: for Herbicidal effect 1 week after: water 100 L/10 a, sprayed up to 20 cm above ground
# Protocol: On Aug. 9, 2005, a bialaphos solution (active ingredient amount: 18%, used in the form of the sodium salt bialaphos-sodium, amount calculated for bialaphos) was sprayed (solution amount: 500 to 1500 mL/10 a, water amount: 100 L/10 a) to morning glory spp. (height: 55 cm to 70 cm) such as Ipomoea triloba L. and Ipomoea hederacea Jacq. generated between ridges in a soybean field and coiled around soybean, from land surface up to a height of 20 cm above ground, and the herbicidal effect thereafter was observed.
# [4] = not sprayed, 200-fold diluted solution sprayed from peak to between sixth and seventh leaves, examined November 6
# [5] = sprayed region, 200-fold diluted solution sprayed on upper portion of stem, treated Oct. 23, 2005, examined November 6
# [6] = scattering to soybean, 500 mL/10 a
smiles,measurement,setting,value
CC(C)N1C(=O)c2ccccc2NS1(=O)=O [Pentazone],Herbicidal activity,morning glory spp. [1],lower activity
same,Herbicidal activity,Abutilon theophrasti,high activity
"CP(=O)(O)CCC(N)C(=O)O (stereo not shown) [glufosinate (salt), glufosinate]","Effect, lower half portion of hill","Ipomoea hederacea Jacq.; 200-fold diluted solution sprayed on lower half portion (sprayed portion), treated Aug. 13, 2005, examined August 23",+++
same,"Effect, upper half portion of hill","Ipomoea hederacea Jacq.; 200-fold diluted solution sprayed on lower half portion only, upper half not sprayed, treated Aug. 13, 2005, examined August 23, hills around 70 cm",+++
same,Where activity appeared after spraying only the lower half portion of the hill,"Ipomoea hederacea Jacq.; morning glory spp. (Ipomoea hederacea Jacq. and Ipomoea triloba L., see Table 1)",appeared not only in the lower half portion of the hill but also in the peak thereof
same,"Effect, lower half portion of hill",Ipomoea triloba L.; 200-fold diluted solution sprayed on lower half portion (sprayed portion),+++
same,"Effect, upper half portion of hill","Ipomoea triloba L.; 200-fold diluted solution sprayed on lower half portion only, upper half not sprayed, hills around 70 cm",+++
same,"Effect, leaf 1",Ipomoea lacunosa L.; [4],−
same,"Effect, leaf 2",Ipomoea lacunosa L.; [4],−
same,"Effect, leaf 3",Ipomoea lacunosa L.; [4],−
same,"Effect, leaf 4",Ipomoea lacunosa L.; [4],−
same,"Effect, leaf 5",Ipomoea lacunosa L.; [4],++
same,"Effect, leaf 6",Ipomoea lacunosa L.; [4],++
same,"Effect, root",Ipomoea lacunosa L.; [4],−
same,Effect in the lower leaves and in root after spraying only the upper portion of the stem,Ipomoea lacunosa L.; see Table 2,not observed
same,Effect under the sprayed region after spraying only the upper portion of the stem,Ipomoea lacunosa L.; see Table 2,observed in one to two leaves under the sprayed region
same,"Effect, leaf 7",Ipomoea lacunosa L.; [5],+++
same,"Effect, leaf 8",Ipomoea lacunosa L.; [5],+++
same,"Effect, peak portion of stem",Ipomoea lacunosa L.; [5],+++
same,Herbicidal activity at low herbicidal amount,morning glory spp. [1]; 100 mL/10 a,high activity
same,Herbicidal activity,morning glory spp. [1],high activity
same,Herbicidal activity,Abutilon theophrasti,high activity
same,Herbicidal activity,Sida spinosa L.,high activity
same,Herbicidal activity,HIROHAFUURINHOZUKI,high activity
same,Herbicidal activity,Aeschynomene indica,high activity
same,Herbicidal activity,Solanum carolinense,high activity
same,Herbicidal effect 4 days after spraying,morning glory spp. [2]; August 13,most of leaves at grapevine-form parts of the morning glory spp. died
same,Herbicidal effect 14 days after spraying,morning glory spp. [2]; August 23,most of the morning glory spp. died up to the peak portion of the stem
same,Onset of herbicidal effect after spraying,morning glory spp. [2]; soybean field,observed from the next day after spraying
same,Phytotoxicity in soybean on spraying only the lower portion of a stem of morning glory spp.,soybean; control machine spraying in soybean field,scarce phytotoxicity
same,Phytotoxicity in the cotyledon and the first leaf of soybean,soybean; [6],observed
same,Phytotoxicity in the upper leaves of soybean,soybean; [6],little phytotoxicity
same,Bean weight,soybean; listed as Glufosinate (salt),193 ± 29 kg/10 a
same,Bean weight,soybean; listed as glufosinate,193 kg/10 a
CC(C)N.O=C(O)CNCP(=O)(O)O [glyphosate isopropylammonium],Herbicidal activity at the field level,morning glory spp. [1]; at the field level in this test range,insufficient
same,Manifestation of the activity,morning glory spp. [1]; on these plants (morning glory spp. and the other tested weeds),specifically slow manifestation of the activity
"C[C@H](NC(=O)[C@H](C)NC(=O)[C@@H](N)CCP(C)(=O)O)C(=O)O [bialaphos solution, bialaphos]",Herbicidal effect 1 week after,[3]; solution amount 500 mL/10 a,died up to the peak portion of vine
same,Herbicidal effect 1 week after,[3]; solution amount 1000 mL/10 a,died up to the peak portion of vine
same,Herbicidal effect 1 week after,[3]; solution amount 1500 mL/10 a,died up to the peak portion of vine
same,Onset of effect after the treatment,"[3]; sprayed from land surface up to 20 cm above ground, 500 to 1500 mL/10 a",observed from the next day after the treatment
